Results taken from US11046649B2, “Compounds useful as inhibitors of indoleamine 2,3-dioxygenase and/or tryptophan dioxygenase” (Board of Regents, The University of Texas System, priority 2018, dated 2021).
pIC50: −log10 of the molar value.

Target: T1, IDO1 (Homo sapiens, UniProt P14902)
T1 construct: endogenous in cells; host or cells: HeLa cells (ATCC), IDO1 induced with 10 ng/mL IFNgamma
Assay: IDO1 cell-based assay
Conditions: HeLa cells, 10 ng/mL IFNgamma, 24 hours with test compound; N-Formyl Kynurenine and L-tryptophan quantified by RFMS

T1 sequence (P14902 whole entry): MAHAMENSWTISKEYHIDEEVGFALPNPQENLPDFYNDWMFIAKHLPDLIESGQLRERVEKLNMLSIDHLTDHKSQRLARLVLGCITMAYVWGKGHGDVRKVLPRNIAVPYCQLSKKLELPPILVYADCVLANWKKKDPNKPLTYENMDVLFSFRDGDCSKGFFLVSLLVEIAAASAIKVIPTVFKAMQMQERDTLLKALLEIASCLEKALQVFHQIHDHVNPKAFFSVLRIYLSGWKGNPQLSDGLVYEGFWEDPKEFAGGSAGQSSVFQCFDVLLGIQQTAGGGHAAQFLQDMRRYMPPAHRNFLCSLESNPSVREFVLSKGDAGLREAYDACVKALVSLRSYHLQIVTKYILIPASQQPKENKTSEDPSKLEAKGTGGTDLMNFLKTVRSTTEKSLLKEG

Molecule	pIC50
CC(C(=O)NC12CC(NC(=O)CO)(C1)C2)[C@H]1[C@@H]2C[C@@H](Oc3ccnc4ccc(F)cc34)C[C@@H]21 (stereo partly drawn) [Example 129, 2-((1R,3s,5S,6r)-3-((6-fluoroquinolin-4-yl)oxy)-bicyclo[3.1.0]hexan-6-yl)-N-(3-(2-hydroxy-acetamido)bicyclo-[1.1.1]pentan-1-yl)-propanamide]	6.22
CC(C(=O)NC12CC(NC(=O)CC#N)(C1)C2)[C@H]1[C@@H]2C[C@@H](Oc3ccnc4ccc(F)cc34)C[C@@H]21 (stereo partly drawn) [Example 130]	6.20
COCC(=O)NC12CC(NC(=O)C(C)[C@H]3[C@@H]4C[C@@H](Oc5ccnc6ccc(F)cc56)C[C@@H]43)(C1)C2 (stereo partly drawn) [Example 132, 2-((1R,3s,5S,6r)-3-((6-fluoroquinolin-4-yl)oxy)-bicyclo[3.1.0]hexan-6-yl)-N-(3-(2-methoxyacetamido)-bicyclo[1.1.1]pentan-1-yl)-propanamide]	6.29
CC(=O)NC12CC(NC(=O)C(C)[C@H]3[C@@H]4C[C@@H](Oc5ccnc6ccc(F)cc56)C[C@@H]43)(C1)C2 (stereo partly drawn) [Example 133, N-(3-acetamidobicyclo-[1.1.1]pentan-1-yl)-2-((1R,3s,5S,6r)-3-((6-fluoro-quinolin-4-yl)oxy)bicyclo-[3.1.0]hexan-6-yl)-propanamide]	6.38
CC(c1nc2cc(C(F)(F)F)ccc2[nH]1)[C@H]1[C@@H]2C[C@@H](Oc3ccnc4ccc(F)cc34)C[C@@H]21 (stereo partly drawn) [Example 137, 6-fluoro-4-(((1R,3s,5S,6r)-6-(1-(5-(trifluoromethyl)-1H-benzo[d]imidazol-2-yl)-ethyl)bicyclo[3.1.0]hexan-3-yl)oxy)quinoline]	8.92
CC(C(=O)Nc1cnn(-c2ccccc2)c1)[C@H]1[C@@H]2C[C@@H](Oc3ccnc4ccc(F)cc34)C[C@@H]21 (stereo partly drawn) [Example 143, 2-((1R,3s,5S,6r)-3-((6-fluoroquinolin-4-yl)-oxy)bicyclo[3.1.0]hexan-6-yl)-N-(1-phenyl-1H-pyrazol-4-yl)propanamide]	8.56
CCC(C(=O)Nc1ccc(C#N)nn1)[C@H]1[C@@H]2C[C@@H](Oc3ccnc4ccc(F)cc34)C[C@@H]21 (stereo partly drawn) [Example 149, N-(6-cyanopyridazin-3-yl)-2-((1R,3s,5S,6r)-3-((6-fluoroquinolin-4-yl)oxy)-bicyclo[3.1.0]hexan-6-yl)butanamide]	8.26
N-(5-(1H-1,2,4-triazol-1- yl)pyridin-2-yl)-2- ((1R,3s,5S,6r)-3-((6- fluoroquinolin-4-yl)- oxy)bicyclo[3.1.0]hexan-6- yl)propanamide [Example 96]	8.15
N-(5-cyanopyridin-2-yl)-2- ((1R,3s,5S,6r)-3-((6- fluoroquinolin-4-yl)oxy)- bicyclo[3.1.0]hexan-6-yl)- propanamide [Example 58]	8.70
